According to ChEMBL document CHEMBL1201862, “PubChem BioAssay data set” (2004):
“And” between values parts separate entries of the source, which are not always exact repeats. Equal values may be shown once. The source made the active and inactive calls.

Columns and labels:
INS1 = test: INS-1E survival protection against cytokine death – cell-based, luminescence, retest, dose response (AID 449756); format: functional; conditions: Rattus norvegicus;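 further: cell death triggered by IL-1 beta plus TNF-alpha plus IFN-gamma mixture; protective hits raise ATP signal compared with cytokine alone wells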
Streptococcus = test: GAS UMAA2166 growth inhibition – luminescence, BacTiterGlo, counter-screen for streptokinase expression inhibitor project, dose response (AID 1915); format: functional, organism-based;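 further: potency for reduction of bacterial viability or growth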
[1] = system: Streptococcus sp. 'group A'; test: Streptococcus pyogenes SK(-)GAS viability under kanamycin – luminescence, BacTiterGlo, confirmation, counter-screen for streptokinase expression inhibitor project, dose response (AID 1900); format: functional, organism-based
Cytochrome P450 2C9 = Cytochrome P450 2C9 (Homo sapiens, UniProt P11712)
Cytochrome P450 3A4 = Cytochrome P450 3A4 (Homo sapiens, UniProt P08684);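 further: CYP3A4 tested as one member of a cytochrome P450 panel screen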
Cytochrome P450 2C19 = Cytochrome P450 2C19 (Homo sapiens, UniProt P33261); test: Cytochrome panel assay with activity outcomes. Panel member name: p450-cyp2c19 Compounds with AC50 equal or less than 10 uM are considered active; format: functional; conditions: read-out: AC50
[2] = fluconazole-exposed Candida albicans growth modulators – fluorescence, retest, confirmation (AID 2467); format: functional, cell-based
[3] = NIH-3T3 fibroblast cytotoxicity, dose response, cytotoxicity control, cell-based, fluorescence, Alamar Blue, secondary assay (AID 2327); format: functional;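 further: NIH-3T3 mouse fibroblasts cultured with fluconazole at 8 µg/mL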
[4] = target: T1, Heat shock factor protein 1 (Mus musculus, UniProt P38532); test: enhancement of HSF1-driven luciferase signal – cell-based, NIH3T3, luminescence, dose retest, confirmation (AID 435004); format: functional;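 further: stress induced by proteasome inhibitor MG132 added 30 min after compound; luciferase reporter driven by HSF1 response element in NIH3T3 cells; actives raise luminescence as potentiators of the MG132 stress response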
T1 sequence (P38532 whole entry): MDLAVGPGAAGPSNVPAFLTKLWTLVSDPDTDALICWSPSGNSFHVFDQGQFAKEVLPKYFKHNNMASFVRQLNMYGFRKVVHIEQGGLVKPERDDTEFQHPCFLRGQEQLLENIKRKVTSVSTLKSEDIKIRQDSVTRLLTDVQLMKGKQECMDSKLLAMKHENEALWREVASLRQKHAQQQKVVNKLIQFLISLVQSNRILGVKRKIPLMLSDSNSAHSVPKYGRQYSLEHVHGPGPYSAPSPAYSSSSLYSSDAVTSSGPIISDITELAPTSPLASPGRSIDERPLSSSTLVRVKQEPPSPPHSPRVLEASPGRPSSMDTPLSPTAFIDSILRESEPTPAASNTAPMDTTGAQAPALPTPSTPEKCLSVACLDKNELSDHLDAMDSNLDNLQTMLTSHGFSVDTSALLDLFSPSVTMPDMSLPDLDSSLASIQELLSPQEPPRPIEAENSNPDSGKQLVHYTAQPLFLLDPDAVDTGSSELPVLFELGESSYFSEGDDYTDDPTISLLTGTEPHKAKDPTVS

[5] = target: T2, Ubiquitin-conjugating enzyme E2 N (Homo sapiens, UniProt P61088); format: functional;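 further: Dose-response confirmation in a TR-FRET assay detecting UBC13-driven polyubiquitin chain formation, inhibition measured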
T2 sequence (P61088 whole entry): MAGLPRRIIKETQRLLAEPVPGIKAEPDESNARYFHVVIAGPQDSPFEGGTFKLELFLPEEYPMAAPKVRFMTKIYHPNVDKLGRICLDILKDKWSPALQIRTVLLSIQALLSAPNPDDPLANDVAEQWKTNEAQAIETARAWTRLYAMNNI

Cytochrome P450 1A2 = target: T3, Cytochrome P450 1A2 (Homo sapiens, UniProt P05177);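 further: PubChem cytochrome P450 panel assay, CYP1A2 panel member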
T3 sequence (P05177 whole entry): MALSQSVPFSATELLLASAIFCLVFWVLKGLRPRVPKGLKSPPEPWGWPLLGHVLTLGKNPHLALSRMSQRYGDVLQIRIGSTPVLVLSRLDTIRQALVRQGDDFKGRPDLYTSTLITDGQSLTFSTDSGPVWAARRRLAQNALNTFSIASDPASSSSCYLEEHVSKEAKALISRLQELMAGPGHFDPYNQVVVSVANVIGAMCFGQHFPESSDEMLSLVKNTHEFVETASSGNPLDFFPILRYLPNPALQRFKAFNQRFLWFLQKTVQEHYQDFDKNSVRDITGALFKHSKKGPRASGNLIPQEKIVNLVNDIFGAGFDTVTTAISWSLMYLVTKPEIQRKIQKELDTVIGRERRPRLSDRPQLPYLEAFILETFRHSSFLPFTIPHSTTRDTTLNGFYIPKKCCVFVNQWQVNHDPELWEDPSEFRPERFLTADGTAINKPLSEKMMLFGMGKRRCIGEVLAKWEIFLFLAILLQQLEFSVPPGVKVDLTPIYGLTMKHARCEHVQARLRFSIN

Paired box protein Pax-8 = Paired box protein Pax-8 (Homo sapiens, UniProt Q06710); test: PAX8 transcriptional activity inhibition in RMG-I – RMG-I cells, luciferase, cherry-pick, dose response (AID 687027); format: functional, cell-based;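 further: luciferase reporter driven by Pax8 target thyroperoxidase promoter measured by SteadyGlo luminescence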
[6] = Luminescence Cell-Based Dose Response HTS to Identify Activators of Luciferase Translation or Activity in H4 […] Cells. [Related pubchem assays: 1829 (Project Summary), 1814 (Primary HTS)]; format: functional
H4 = test: Luminescence Cell-Based Dose Response HTS to Identify Activators of 5'UTR Stem-Loop Driven Prion Protein mRNA Translation in H4 Neuroglioblastoma Cells. [Related pubchem assays: 1829 (Project Summary), 1814 (Primary HTS)]; format: functional; conditions: Homo sapiens
[7] = reduction of Shn3 3'UTR-driven luciferase in osteoblasts – cell-based, Clone20 osteoblasts, firefly luciferase, cherry-picked, dose response (AID 624132); format: functional;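 further: firefly luciferase luminescence from reporter carrying the Shn3 3'UTR in osteoblasts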
[8] = NIH3T3 cell viability loss – ATP luminescence, mouse fibroblasts, counter-screen, dose response (AID 2010); format: functional, cell-based;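 further: cells exposed to compound for about 90 hours before reading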
[9] = Trypanosoma cruzi growth suppression in host cells – NIH3T3 host cells, beta-gal luminescence, confirmation (AID 2044); format: functional, cell-based;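 further: intracellular parasites grown in NIH/3T3 mouse fibroblasts as host cells; luminescent beta-galactosidase reporter signal from transgenic T. cruzi replicating inside host cells; inhibitors lower the luminescence signal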

Cytochrome P450 2C19, sequence (P33261 whole entry): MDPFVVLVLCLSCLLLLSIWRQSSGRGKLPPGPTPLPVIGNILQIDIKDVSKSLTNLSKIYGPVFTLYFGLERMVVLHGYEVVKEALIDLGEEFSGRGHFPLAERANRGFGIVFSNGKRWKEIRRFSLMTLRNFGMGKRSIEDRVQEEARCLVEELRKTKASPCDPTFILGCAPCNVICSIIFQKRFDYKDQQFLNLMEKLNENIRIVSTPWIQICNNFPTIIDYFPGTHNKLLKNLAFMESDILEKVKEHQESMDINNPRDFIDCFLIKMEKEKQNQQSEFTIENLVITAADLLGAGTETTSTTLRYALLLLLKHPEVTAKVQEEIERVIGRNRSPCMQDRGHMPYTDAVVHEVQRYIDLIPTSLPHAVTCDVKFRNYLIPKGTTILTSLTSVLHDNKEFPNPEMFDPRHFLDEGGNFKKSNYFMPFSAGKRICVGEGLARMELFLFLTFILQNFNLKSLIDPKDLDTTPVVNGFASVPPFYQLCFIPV
Cytochrome P450 2C9, sequence (P11712 whole entry): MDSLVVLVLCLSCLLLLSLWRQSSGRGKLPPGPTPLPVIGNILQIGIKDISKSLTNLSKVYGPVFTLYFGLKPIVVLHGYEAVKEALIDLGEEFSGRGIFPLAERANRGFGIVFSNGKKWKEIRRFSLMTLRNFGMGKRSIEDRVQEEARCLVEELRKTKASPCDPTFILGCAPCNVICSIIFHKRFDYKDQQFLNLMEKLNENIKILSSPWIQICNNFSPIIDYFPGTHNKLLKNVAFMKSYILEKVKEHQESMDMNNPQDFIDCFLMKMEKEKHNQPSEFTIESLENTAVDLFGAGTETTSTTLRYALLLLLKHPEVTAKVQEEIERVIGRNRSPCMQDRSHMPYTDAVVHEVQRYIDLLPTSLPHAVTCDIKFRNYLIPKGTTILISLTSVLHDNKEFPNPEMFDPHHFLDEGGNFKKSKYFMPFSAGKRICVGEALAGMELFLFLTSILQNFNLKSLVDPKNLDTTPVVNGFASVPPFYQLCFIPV
Cytochrome P450 3A4, sequence (P08684 whole entry): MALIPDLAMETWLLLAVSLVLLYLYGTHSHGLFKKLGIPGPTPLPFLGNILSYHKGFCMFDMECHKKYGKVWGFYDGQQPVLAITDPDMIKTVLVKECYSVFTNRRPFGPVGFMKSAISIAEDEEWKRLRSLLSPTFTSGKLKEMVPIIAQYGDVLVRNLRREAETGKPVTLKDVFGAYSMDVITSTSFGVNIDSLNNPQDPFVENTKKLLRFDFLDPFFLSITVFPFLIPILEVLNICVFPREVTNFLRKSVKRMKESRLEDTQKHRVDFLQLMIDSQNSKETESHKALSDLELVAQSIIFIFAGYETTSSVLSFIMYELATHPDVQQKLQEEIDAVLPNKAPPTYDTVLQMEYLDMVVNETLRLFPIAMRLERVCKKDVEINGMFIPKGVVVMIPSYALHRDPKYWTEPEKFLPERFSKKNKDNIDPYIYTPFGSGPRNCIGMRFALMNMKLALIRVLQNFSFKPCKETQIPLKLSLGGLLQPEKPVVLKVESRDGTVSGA
Paired box protein Pax-8, sequence (Q06710 whole entry): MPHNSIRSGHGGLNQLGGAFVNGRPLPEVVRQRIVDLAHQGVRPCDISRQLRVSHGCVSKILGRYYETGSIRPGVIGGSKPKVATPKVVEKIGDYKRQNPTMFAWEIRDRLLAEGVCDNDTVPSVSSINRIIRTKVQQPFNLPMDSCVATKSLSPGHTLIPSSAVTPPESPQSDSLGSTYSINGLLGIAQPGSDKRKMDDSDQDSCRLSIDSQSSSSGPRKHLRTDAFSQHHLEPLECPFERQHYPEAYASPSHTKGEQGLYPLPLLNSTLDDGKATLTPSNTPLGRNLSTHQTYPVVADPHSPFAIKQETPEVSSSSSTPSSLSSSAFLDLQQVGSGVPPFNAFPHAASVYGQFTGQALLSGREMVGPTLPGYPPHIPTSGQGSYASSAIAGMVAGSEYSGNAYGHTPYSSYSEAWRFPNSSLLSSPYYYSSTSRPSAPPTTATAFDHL

Cc1cc(C(=O)c2ccc3ccccc3c2)c(C)o1
AC50 (INS1): > 260 µM (inactive)

Oc1ccc(Cl)cc1C1=NNC(c2ccc(Cl)cc2)C1 (stereo unspecified)
EC50 (Streptococcus): 5.5 µM (active) | EC50 [1]: 2.78 µM (active)

COCCn1c(=O)c(-c2ccc(F)cc2)nc2cnc(OCc3ccccc3)nc21
AC50 (Cytochrome P450 2C9): 20 µM (inconclusive) | AC50 (Cytochrome P450 3A4): 12.6 µM (inconclusive) | AC50 (Cytochrome P450 2C19): 10 µM (inconclusive)

CCN(CC)c1ccc(/C=C/C(=O)c2cccnc2)cc1
EC50 [2]: 0.065 µM (active) | EC50 [3]: > 150 µM (inactive)

O=C(CC12CCC(CC1)C2)NCc1ccc2c(c1)OCO2
EC50 [4]: > 260 µM (inactive)

COC(=O)C1=C(C)N(Cc2ccccc2)C(NCCc2ccccn2)=N[C@H]1c1cccc(C(F)(F)F)c1
IC50 [5]: > 20 µM (inactive)

COC(=O)c1cc(OC)c(OC)cc1NC(=O)CSc1ccccc1
AC50 (Cytochrome P450 2C9): 20 µM (inconclusive) | AC50 (Cytochrome P450 3A4): 15.8 µM (inconclusive)

C/C(CC(=O)NCc1ccco1)=N\NC(=O)Cc1ccc(Cl)cc1
AC50 (Cytochrome P450 1A2): 20 µM (inconclusive) | AC50 (Cytochrome P450 2C9): 25.1 µM (inconclusive) | AC50 (Cytochrome P450 3A4): 15.8 µM (inconclusive) | AC50 (Cytochrome P450 2C19): 22.4 µM (inconclusive)

O=C(Nc1ccc(Cl)c(Cl)c1)N[C@@H]1CC[C@H](CCn2cc(C3CCCCC3)nn2)O[C@H]1CO
AC50 (Paired box protein Pax-8): 19.7 µM (active)

COc1cc(-c2nnc(NC(=O)c3ccc(S(=O)(=O)N4CCOCC4)cc3)o2)cc(OC)c1OC
EC50 [2]: 5.71 µM (active) | EC50 [3]: > 160 µM (inactive)

COc1ccc(Cc2nn3c(O)cc(C(C)C)nc3c2-c2ccccc2)cc1
EC50 (Streptococcus): 4.68 µM (active) | EC50 [1]: 1.78 µM (active)

Cc1ccc(-c2nnc(N(C)C(=O)c3cccnc3)s2)cc1
AC50 (Cytochrome P450 1A2): 10 µM (inconclusive) | AC50 (Cytochrome P450 3A4): 17.8 µM (inconclusive) | AC50 (Cytochrome P450 2C19): 3.16 µM (inconclusive)

COC(=O)[C@@H]1[C@@H](O)[C@@]2(O)c3c(OC)cc(OC)cc3O[C@@]2(c2ccc(OC)cc2)[C@H]1c1ccccc1
AC50 (Cytochrome P450 3A4): 10 µM (inconclusive)

CN1c2ccc(C#Cc3cccnc3)cc2[C@@H]2[C@@H](CCN2C(=O)Cc2cccnc2)[C@@H]1CO
AC50 (Paired box protein Pax-8): 57.2 µM (active)

N#C/C(=C\NC(=S)c1ccncc1)c1nc2ccccc2s1
AC50 (Cytochrome P450 2C9): 6.31 µM (inconclusive) | AC50 (Cytochrome P450 3A4): 2.51 µM (inconclusive)

O=C(N/N=C1\CC(c2ccccc2)Oc2ccccc21)c1ccc(O)cc1 (stereo unspecified)
EC50 [4]: > 260 µM (inactive)

COc1ccc(/C=N/NC(=O)c2ccc(-c3ccccc3)cc2)cc1O
EC50 [2]: 0.036 µM (active) | EC50 [3]: > 150 µM (inactive)

CCn1c(=O)n(CC)c2cc(S(=O)(=O)Nc3ccccc3C)c(C)cc21
EC50 [4]: > 260 µM (inactive)

C=CCN1CC[C@@]23c4c5ccc(O)c4O[C@H]2/C(=N\N=C2/CC[C@@]4(O)[C@H]6Cc7ccc(O)c8c7[C@@]4(CCN6CC=C)[C@@H]2O8)CC[C@]3(O)[C@@H]1C5
AC50 (Cytochrome P450 3A4): 31.6 µM (inconclusive) and 25.1 µM (inconclusive)

COc1ccc(NC(=O)CSc2nc(O)cc(=O)n2-c2ccc(OC)cc2)cc1
EC50 (Streptococcus): 26 µM (inconclusive) | EC50 [1]: 13.9 µM (active)

COc1ccc(/C=C2\OC(=O)c3c(OC)cccc32)cc1OC
EC50 [6]: 7.38 µM (active) | AC50 (Cytochrome P450 3A4): 10 µM (inconclusive) | EC50 (H4): 22.4 µM (active)

COc1ccc(NC(=O)CCOc2cc(C)ccc2C)cc1S(=O)(=O)N1CCCCC1
AC50 [7]: 10.4 µM (active)

Cc1ccc2c(c1)c(C)c(C)n2CC(O)Cn1nc(C)c(Br)c1C (stereo unspecified)
EC50 [4]: > 260 µM (inactive)

Oc1ccc(Cl)cc1Nc1nc(NCC2CCCO2)c2ccccc2n1 (stereo unspecified)
IC50 [5]: > 20 µM (inactive)

CCOC(=O)CSc1cc(-c2ccccc2)nc2ncnn12
EC50 [4]: 22.8 µM (active)

O=C(Nc1nccs1)c1cc2c(s1)-c1ccccc1OC2
EC50 (H4): > 120 µM (not active)

COc1ccc(NC(=O)COc2ccccc2Cc2ccccc2)cc1S(N)(=O)=O
EC50 [4]: > 260 µM (inactive)

CN(C)c1nc(N)c(C(=O)NC(=N)N)nc1Cl
AC50 (Cytochrome P450 3A4): 10 µM (inconclusive)

CCCn1c(=N)n(CC(=O)c2ccc([N+](=O)[O-])cc2)c2ccccc21
EC50 [2]: > 38 µM (not active) | EC50 [3]: 10.5 µM (active)

CS(=O)(=O)N1CCC2(CCCN(C(=O)Nc3cccc(C#N)c3)C2)CC1
AC50 (Cytochrome P450 3A4): 25.1 µM (inconclusive)

CCN1CCN(c2cc(C)c3cc(NC(=S)N4CCN(c5ccc(F)cc5)CC4)ccc3n2)CC1
IC50 [5]: > 20 µM (inactive)

C#CCOCCOCCOCCNc1nc(N2CCN(C(=O)C([C@@H](C)O)n3cc([C@@H](N)CCCCN)nn3)CC2)nc(N2CCN(C(=O)C([C@@H](C)O)n3cc([C@@H](N)CCCCN)nn3)CC2)n1 (stereo partly specified)
IC50 [5]: > 20 µM (inactive)

Cc1ccc(N2C(=O)CSC2c2cccnc2)c(Cl)c1 (stereo unspecified)
AC50 (INS1): > 260 µM (inactive)

O=C(N/N=C/c1ccc[nH]1)c1cc2ccccc2cc1O
EC50 [2]: > 38 µM (not active) | EC50 [3]: > 160 µM (inactive)

C[C@@]1(C(NC(=O)Cc2ccccc2)c2ccc(-c3ccccc3)cc2)C[C@H]1C1CCCCC1 (stereo partly specified)
AC50 (Cytochrome P450 3A4): 15.8 µM (inconclusive)

CCc1ccc(C(=O)NNc2ccc(F)cc2F)cc1
EC50 [2]: > 38 µM (not active) | EC50 [3]: > 150 µM (inactive)

Cc1cccc(N(C(=O)c2snc(C(N)=O)c2N)C(C(=O)NCC2CCCO2)c2c[nH]c3ccccc23)c1 (stereo unspecified)
IC50 [5]: > 20 µM (inactive)

CN(C)CC(O)COc1cc2ccccc2cc1C(=O)N1CCCCC1 (stereo unspecified)
EC50 [3]: > 150 µM (inactive)

COc1ccc(CN2CN=C(Nc3nc4ccccc4s3)NC2)cc1
AC50 (Cytochrome P450 2C9): 20 µM (inconclusive) | AC50 (Cytochrome P450 3A4): 10 µM (inconclusive)

O=C(Nc1nnc(C2CC2)s1)c1ccc(S(=O)(=O)c2ccccc2)cc1
AC50 (Cytochrome P450 2C9): 0.794 µM (inconclusive) | AC50 (Cytochrome P450 2C19): 7.08 µM (inconclusive)

CCC/C=C(\CCC)C(NS(=O)(=O)c1ccc(C(F)(F)F)cc1)c1ccc(-c2ccccc2)cc1 (stereo unspecified)
AC50 (Cytochrome P450 3A4): 3.98 µM (inconclusive)

O=C(COC(=O)Cn1cnc2ccccc2c1=O)NCc1ccccc1Cl
IC50 [5]: > 20 µM (inactive)

Cc1nnc(SCC2=C(C(=O)O)N3C(=O)C(NC(=O)Cn4ncc(Cl)c4C)C3SC2)s1 (stereo unspecified)
EC50 (Streptococcus): 0.117 µM (active) | EC50 [1]: < 0.06 µM (active)

COCCNc1ccnc(-c2c(C)noc2C)n1
AC50 (Cytochrome P450 3A4): 31.6 µM (inconclusive)

CC(C)NC(=Nc1ccc(Cl)cc1)c1cccnc1
AC50 (Cytochrome P450 3A4): 22.4 µM (inconclusive) | AC50 (Cytochrome P450 2C19): 6.31 µM (inconclusive)

Cc1ccccc1OCC(O)CN1CCN(CCN2C(=O)c3cccc4cccc(c34)C2=O)CC1 (stereo unspecified)
IC50 [5]: > 20 µM (inactive) | EC50 [8]: > 60 µM (inconclusive) | EC50 [9]: 0.851 µM (active)

CC(=O)O[C@H]1CC[C@H]2[C@@H]3CC[C@H]4[C@@H](O)[C@H](O)CC[C@]4(C)[C@H]3CC[C@]12C
AC50 [7]: > 70 µM (inactive)

COCCCn1c(=S)[nH]c2ncccc2c1=O
AC50 (Cytochrome P450 2C9): 0.00562 µM (inconclusive) | AC50 (Cytochrome P450 2C19): 0.501 µM (inconclusive)

Cc1cc(C)cc(-n2nnnc2-c2cn(C)nc2C(F)(F)F)c1
AC50 (Cytochrome P450 3A4): 15.8 µM (inconclusive)
